Test results as given in the supplement of paper PMC4380931.
± gives the standard deviation of the averaged measurements.

Experiments:
Assay in all cases: apoptotic fraction of cells (caspase-3 NucView488 positive); higher = more apoptosis
[1] = system: C32
Experimental: (§1)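 BRAF V600E/D melanoma cell lines were seeded in 96-well plates, treated in 4 replicates with seven doses (3.16 nM to 3.16 uM) of RAF/MEK inhibitors for 24, 48 or 72 h, and stained with Hoechst 33342 (nuclei) and DEVD-NucView488 caspase-3 substrate. Plates were imaged on an Operetta. Relative viability is the cell count normalised to a DMSO-treated control; apoptosis fraction is the fraction of NucView488-positive nuclei.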

[2] = system: COLO858
Experimental: as §1

[3] = system: K2
Experimental: as §1

[4] = system: LOXIMVI
Experimental: as §1

[5] = system: RVH421
Experimental: as §1

Cc1ccc(NC(=O)c2cccc(C(C)(C)C#N)c2)cc1Nc1ccc2ncn(C)c(=O)c2c1 [AZ628]
apoptotic fraction of cells
Conditions | 0.00316 µM | 0.01 µM | 0.0316 µM | 0.1 µM | 0.316 µM | 1 µM | 3.16 µM
[1], 24 h | 0.0886 ± 0.003 | 0.128 ± 0.017 | 0.177 ± 0.042 | 0.226 ± 0.023 | 0.28 ± 0.018 | 0.338 ± 0.034 | 0.24 ± 0.017
[1], 48 h | 0.0865 ± 0.014 | 0.103 ± 0.017 | 0.0851 ± 0.017 | 0.213 ± 0.017 | 0.509 ± 0.052 | 0.847 ± 0.011 | 0.9051 ± 0.0087
[1], 72 h | 0.0829 ± 0.007 | 0.0581 ± 0.01 | 0.0379 ± 0.0014 | 0.301 ± 0.017 | 0.676 ± 0.038 | 0.886 ± 0.026 | 0.941 ± 0.012
[2], 24 h | 0.0485 ± 0.0059 | 0.0403 ± 0.0028 | 0.0435 ± 0.0063 | 0.0728 ± 0.0065 | 0.105 ± 0.011 | 0.136 ± 0.015 | 0.171 ± 0.0066
[2], 48 h | 0.0518 ± 0.0063 | 0.0435 ± 0.0043 | 0.0477 ± 0.0086 | 0.12 ± 0.034 | 0.221 ± 0.011 | 0.296 ± 0.046 | 0.436 ± 0.033
[2], 72 h | 0.0847 ± 0.0054 | 0.0691 ± 0.0041 | 0.0679 ± 0.0052 | 0.109 ± 0.011 | 0.225 ± 0.019 | 0.381 ± 0.024 | 0.534 ± 0.015
[3], 24 h | 0.00396 ± 0.00093 | 0.003 ± 0.00036 | 0.00276 ± 0.002 | 0.00598 ± 0.0023 | 0.0287 ± 0.014 | 0.117 ± 0.036 | 0.135 ± 0.041
[3], 48 h | 0.00258 ± 0.0012 | 0.00301 ± 0.0014 | 0.00475 ± 0.0019 | 0.0219 ± 0.0043 | 0.0649 ± 0.014 | 0.254 ± 0.036 | 0.358 ± 0.046
[4], 24 h | 0.0535 ± 0.01 | 0.0347 ± 0.014 | 0.0365 ± 0.0069 | 0.0586 ± 0.0053 | 0.0296 ± 0.0061 | 0.0677 ± 0.017 | 0.0554 ± 0.0088
[4], 48 h | 0.0814 ± 0.011 | 0.0536 ± 0.012 | 0.0416 ± 0.0049 | 0.0479 ± 0.0027 | 0.063 ± 0.0059 | 0.118 ± 0.0058 | 0.163 ± 0.0068
[4], 72 h | 0.139 ± 0.018 | 0.104 ± 0.064 | 0.0405 ± 0.004 | 0.0836 ± 0.013 | 0.117 ± 0.0087 | 0.211 ± 0.0098 | 0.497 ± 0.048
[5], 24 h | 0.0557 ± 0.0032 | 0.0513 ± 0.00054 | 0.04611 ± 0.00017 | 0.0493 ± 0.0032 | 0.0559 ± 0.012 | 0.0518 ± 0.00084 | 0.0578 ± 0.014
[5], 48 h | 0.0503 ± 0.011 | 0.053 ± 0.0075 | 0.0555 ± 0.015 | 0.0583 ± 0.0065 | 0.0645 ± 0.0092 | 0.0779 ± 0.011 | 0.108 ± 0.014
[5], 72 h | 0.0338 ± 0.0032 | 0.032 ± 0.0035 | 0.038 ± 0.003 | 0.0442 ± 0.0059 | 0.0517 ± 0.0043 | 0.105 ± 0.011 | 0.165 ± 0.016
